Results taken from publication PMC12454493, “Insight on novel sulfamoylphenyl pyrazole derivatives as anticancer carbonic anhydrase inhibitors” (Molecular Diversity, 2024).

Key:
LOX IMVI = assay: NCI-60 one-dose SRB screen (Melanoma); type: cell-based; details: Homo sapiens, single dose 10 µM, 48 h, read-out: Growth inhibition percent (GI %)
SK-MEL-28 = assay: NCI-60 one-dose SRB screen (Melanoma); type: cell-based; details: Homo sapiens, single dose 10 µM, 48 h, read-out: Growth inhibition percent (GI %)
UACC-62 = assay: NCI-60 one-dose SRB screen (Melanoma); type: cell-based; details: Homo sapiens, single dose 10 µM, 48 h, read-out: Growth inhibition percent (GI %)
SK-MEL-2 = assay: NCI-60 one-dose SRB screen (Melanoma); type: cell-based; details: Homo sapiens, single dose 10 µM, 48 h, read-out: Growth inhibition percent (GI %)
MDA-MB-435 = assay: NCI-60 one-dose SRB screen (Melanoma); type: cell-based; details: Homo sapiens, single dose 10 µM, 48 h, read-out: Growth inhibition percent (GI %)
MALME-3M = assay: NCI-60 one-dose SRB screen (Melanoma); type: cell-based; details: Homo sapiens, single dose 10 µM, 48 h, read-out: Growth inhibition percent (GI %)
SK-MEL-5 = assay: NCI-60 one-dose SRB screen (Melanoma); type: cell-based; details: Homo sapiens, single dose 10 µM, 48 h, read-out: Growth inhibition percent (GI %)
UACC-257 = assay: NCI-60 one-dose SRB screen (Melanoma); type: cell-based; details: Homo sapiens, single dose 10 µM, 48 h, read-out: Growth inhibition percent (GI %)
M14 = assay: NCI-60 one-dose SRB screen (Melanoma); type: cell-based; details: Homo sapiens, single dose 10 µM, 48 h, read-out: Growth inhibition percent (GI %)
MDA-MB-231/ATCC = assay: NCI-60 one-dose SRB screen (Breast Cancer); type: cell-based; details: Homo sapiens, single dose 10 µM, 48 h, read-out: Growth inhibition percent (GI %)
HS 578T = assay: NCI-60 one-dose SRB screen (Breast Cancer); type: cell-based; details: Homo sapiens, single dose 10 µM, 48 h, read-out: Growth inhibition percent (GI %)
BT-549 = assay: NCI-60 one-dose SRB screen (Breast Cancer); type: cell-based; details: Homo sapiens, single dose 10 µM, 48 h, read-out: Growth inhibition percent (GI %)
T-47D = assay: NCI-60 one-dose SRB screen (Breast Cancer); type: cell-based; details: Homo sapiens, T47D, single dose 10 µM, 48 h, read-out: Growth inhibition percent (GI %)
MCF-7 = assay: NCI-60 one-dose SRB screen (Breast Cancer); type: cell-based; details: Homo sapiens, MCF7, single dose 10 µM, 48 h, read-out: Growth inhibition percent (GI %)
MDA-MB-468 = assay: NCI-60 one-dose SRB screen (Breast Cancer); type: cell-based; details: Homo sapiens, single dose 10 µM, 48 h, read-out: Growth inhibition percent (GI %)
OVCAR-4 = assay: NCI-60 one-dose SRB screen (Ovarian cancer); type: cell-based; details: Homo sapiens, single dose 10 µM, 48 h, read-out: Growth inhibition percent (GI %)
OVCAR-8 = assay: NCI-60 one-dose SRB screen (Ovarian cancer); type: cell-based; details: Homo sapiens, single dose 10 µM, 48 h, read-out: Growth inhibition percent (GI %)
NCI/ADR-RES = assay: NCI-60 one-dose SRB screen (Ovarian cancer); type: cell-based; details: Homo sapiens, single dose 10 µM, 48 h, read-out: Growth inhibition percent (GI %)
OVCAR-3 = assay: NCI-60 one-dose SRB screen (Ovarian cancer); type: cell-based; details: Homo sapiens, single dose 10 µM, 48 h, read-out: Growth inhibition percent (GI %)
OVCAR-5 = assay: NCI-60 one-dose SRB screen (Ovarian cancer); type: cell-based; details: Homo sapiens, single dose 10 µM, 48 h, read-out: Growth inhibition percent (GI %)
IGROV1 = assay: NCI-60 one-dose SRB screen (Ovarian cancer); type: cell-based; details: Homo sapiens, IGROV-1, single dose 10 µM, 48 h, read-out: Growth inhibition percent (GI %)
SK-OV-3 = assay: NCI-60 one-dose SRB screen (Ovarian cancer); type: cell-based; details: Homo sapiens, single dose 10 µM, 48 h, read-out: Growth inhibition percent (GI %)
NCI-H23 = assay: NCI-60 one-dose SRB screen (Non-Small Cell Lung Cancer); type: cell-based; details: Homo sapiens, single dose 10 µM, 48 h, read-out: Growth inhibition percent (GI %)
EKVX = assay: as above; type: cell-based; details: Homo sapiens, single dose 10 µM, 48 h, read-out: Growth inhibition percent (GI %)
NCI-H522 = assay: as above; type: cell-based; details: Homo sapiens, single dose 10 µM, 48 h, read-out: Growth inhibition percent (GI %)
HOP-62 = assay: as above; type: cell-based; details: Homo sapiens, single dose 10 µM, 48 h, read-out: Growth inhibition percent (GI %)
NCI-H322M = assay: as above; type: cell-based; details: Homo sapiens, single dose 10 µM, 48 h, read-out: Growth inhibition percent (GI %)
NCI-H226 = assay: as above; type: cell-based; details: Homo sapiens, single dose 10 µM, 48 h, read-out: Growth inhibition percent (GI %)
NCI-H460 = assay: as above; type: cell-based; details: Homo sapiens, single dose 10 µM, 48 h, read-out: Growth inhibition percent (GI %)
A549/ATCC = assay: as above; type: cell-based; details: Homo sapiens, single dose 10 µM, 48 h, read-out: Growth inhibition percent (GI %)
HOP-92 = assay: as above; type: cell-based; details: Homo sapiens, single dose 10 µM, 48 h, read-out: Growth inhibition percent (GI %)
SF-539 = assay: NCI-60 one-dose SRB screen (CNS Cancer); type: cell-based; details: Homo sapiens, single dose 10 µM, 48 h, read-out: Growth inhibition percent (GI %)
SF-295 = assay: NCI-60 one-dose SRB screen (CNS Cancer); type: cell-based; details: Homo sapiens, single dose 10 µM, 48 h, read-out: Growth inhibition percent (GI %)
SNB-19 = assay: NCI-60 one-dose SRB screen (CNS Cancer); type: cell-based; details: Homo sapiens, single dose 10 µM, 48 h, read-out: Growth inhibition percent (GI %)
U251 = assay: NCI-60 one-dose SRB screen (CNS Cancer); type: cell-based; details: Homo sapiens, U-251, single dose 10 µM, 48 h, read-out: Growth inhibition percent (GI %)
SF-268 = assay: NCI-60 one-dose SRB screen (CNS Cancer); type: cell-based; details: Homo sapiens, single dose 10 µM, 48 h, read-out: Growth inhibition percent (GI %)
SNB-75 = assay: NCI-60 one-dose SRB screen (CNS Cancer); type: cell-based; details: Homo sapiens, single dose 10 µM, 48 h, read-out: Growth inhibition percent (GI %)
RPMI-8226 = assay: NCI-60 one-dose SRB screen (Leukemia); type: cell-based; details: Homo sapiens, single dose 10 µM, 48 h, read-out: Growth inhibition percent (GI %)
MOLT-4 = assay: NCI-60 one-dose SRB screen (Leukemia); type: cell-based; details: Homo sapiens, single dose 10 µM, 48 h, read-out: Growth inhibition percent (GI %)
CCRF-CEM = assay: NCI-60 one-dose SRB screen (Leukemia); type: cell-based; details: Homo sapiens, single dose 10 µM, 48 h, read-out: Growth inhibition percent (GI %)
HL-60(TB) = assay: NCI-60 one-dose SRB screen (Leukemia); type: cell-based; details: Homo sapiens, single dose 10 µM, 48 h, read-out: Growth inhibition percent (GI %)
K-562 = assay: NCI-60 one-dose SRB screen (Leukemia); type: cell-based; details: Homo sapiens, K562, single dose 10 µM, 48 h, read-out: Growth inhibition percent (GI %)
hCA IX = hCA IX (Homo sapiens, UniProt Q16790); assay: CA inhibitory activity, spectrophotometric p-NPA assay; type: biochemical; details: for IC50: p-NPA substrate, pH 7.5, 25 °C, triplicate, read-out: IC50 (µM) ± SD hCA IX
Experimental: The software used to calculate CA IC50 along with statistical analysis of the results is GraphPad Prism 9.00. Results were estimated by using one-way ANOVA and the Bonferroni’s multiple comparisons posthoc test was performed (P < 0.05) [46]
Carbonic anhydrase inhibitory activity:
The spectrophotometric assay was conducted in HEPES-Tris buffer, NaCl of pH 7.5 (20mM) at 25◦C. Each inhibitory well-consisted of 50 μL of assay buffer solution, 20 μL of hCA enzyme solution (20 ng/μL in Assay Buffer), and 50 μL of test compound in HPLC grade DMSO (maintain 10% of the final concentration). The mixture solution was
Substrate p-nitrophenyl acetate (p-NPA) (0.7mM) was prepared in HPLC grade methanol and the reaction was started by adding 20 μL to a well in a 96-well-plate. The amount of product formed was measured for 30 min continuously at 1 min intervals at 400 nm in a 96-well-plate using xMARK microplate spectrophotometer, Bio-Rad (USA). The activity of the controlled compound was taken as 100%. All experiments were carried out in triplicates of each used concentration, and results are represented as a

DU-145 = assay: NCI-60 one-dose SRB screen (Prostate Cancer); type: cell-based; details: Homo sapiens, single dose 10 µM, 48 h, read-out: Growth inhibition percent (GI %)
PC-3 = assay: NCI-60 one-dose SRB screen (Prostate Cancer); type: cell-based; details: Homo sapiens, single dose 10 µM, 48 h, read-out: Growth inhibition percent (GI %)

Cc1ccc(-c2nn(-c3ccc(S(N)(=O)=O)cc3)cc2C(=O)OCC(=O)Nc2nnc(S(N)(=O)=O)s2)cc1 [Compound 6b, 2-Oxo-2-[(5-sulfamoyl-1,3,4-thiadiazol-2-yl)amino] ethyl 1-(4-sulfamoylphenyl)-3-(p-tolyl)-1H-pyrazole-4-carboxylate]
inhibition at 10 µM (LOX IMVI): 12.1% | inhibition at 10 µM (SK-MEL-28): < 5% | inhibition at 10 µM (UACC-62): 14.4% | inhibition at 10 µM (SK-MEL-2): < 5% | inhibition at 10 µM (MDA-MB-435): 5.8% | inhibition at 10 µM (MALME-3M): 10.9% | inhibition at 10 µM (SK-MEL-5): 23% | inhibition at 10 µM (UACC-257): < 5% | inhibition at 10 µM (M14): < 5% | inhibition at 10 µM (MDA-MB-231/ATCC): 8.63% | inhibition at 10 µM (HS 578T): < 5% | inhibition at 10 µM (BT-549): < 5% | inhibition at 10 µM (T-47D): < 5% | inhibition at 10 µM (MCF-7): < 5% | inhibition at 10 µM (MDA-MB-468): < 5% | inhibition at 10 µM (OVCAR-4): 16% | inhibition at 10 µM (OVCAR-8): < 5% | inhibition at 10 µM (NCI/ADR-RES): < 5% | inhibition at 10 µM (OVCAR-3): < 5% | inhibition at 10 µM (OVCAR-5): < 5% | inhibition at 10 µM (IGROV1): < 5% | inhibition at 10 µM (SK-OV-3): < 5% | inhibition at 10 µM (NCI-H23): 9.63% | inhibition at 10 µM (EKVX): 7.25% | inhibition at 10 µM (NCI-H522): < 5% | inhibition at 10 µM (HOP-62): < 5% | inhibition at 10 µM (NCI-H322M): < 5% | inhibition at 10 µM (NCI-H226): 13.3% | inhibition at 10 µM (NCI-H460): < 5% | inhibition at 10 µM (A549/ATCC): < 5% | inhibition at 10 µM (HOP-92): 22.2% | inhibition at 10 µM (SF-539): 7.75% | inhibition at 10 µM (SF-295): < 5% | inhibition at 10 µM (SNB-19): 5.72% | inhibition at 10 µM (U251): < 5% | inhibition at 10 µM (SF-268): 9.87% | inhibition at 10 µM (SNB-75): 23.9% | melting point: 115 to 120 °C | inhibition at 10 µM (RPMI-8226): < 5% | inhibition at 10 µM (MOLT-4): 7.13% | inhibition at 10 µM (CCRF-CEM): 6.03% | inhibition at 10 µM (HL-60(TB)): < 5% | inhibition at 10 µM (K-562): 16.7% | IC50 (hCA IX): 0.339 ± 0.016 µM | inhibition at 10 µM (DU-145): < 5% | inhibition at 10 µM (PC-3): 7.13%

CCOC(=O)c1ccc(NC(=O)COC(=O)c2cn(-c3ccc(S(N)(=O)=O)cc3)nc2-c2ccc(S(C)(=O)=O)cc2)cc1 [Compound 5e, 2-[(4-(Ethoxycarbonyl)phenyl)amino]-2-oxoethyl 3-(4-(methylsulfonyl)phenyl)-1-(4-sulfamoylphenyl)-1H-pyrazole-4-carboxylate]
inhibition at 10 µM (LOX IMVI): 11.6% | inhibition at 10 µM (SK-MEL-28): < 5% | inhibition at 10 µM (UACC-62): 15.8% | inhibition at 10 µM (SK-MEL-2): < 5% | inhibition at 10 µM (MDA-MB-435): < 5% | inhibition at 10 µM (MALME-3M): < 5% | inhibition at 10 µM (SK-MEL-5): < 5% | inhibition at 10 µM (UACC-257): < 5% | inhibition at 10 µM (M14): < 5% | inhibition at 10 µM (MDA-MB-231/ATCC): < 5% | inhibition at 10 µM (HS 578T): 23.7% | inhibition at 10 µM (BT-549): 18.9% | inhibition at 10 µM (T-47D): 19.1% | inhibition at 10 µM (MCF-7): 6.56% | inhibition at 10 µM (MDA-MB-468): 20.3% | inhibition at 10 µM (OVCAR-4): 12.3% | inhibition at 10 µM (OVCAR-8): < 5% | inhibition at 10 µM (NCI/ADR-RES): < 5% | inhibition at 10 µM (OVCAR-3): < 5% | inhibition at 10 µM (OVCAR-5): 7.15% | inhibition at 10 µM (IGROV1): < 5% | inhibition at 10 µM (SK-OV-3): < 5% | inhibition at 10 µM (NCI-H23): 8.79% | inhibition at 10 µM (EKVX): < 5% | inhibition at 10 µM (NCI-H522): 13.5% | inhibition at 10 µM (HOP-62): < 5% | inhibition at 10 µM (NCI-H322M): < 5% | inhibition at 10 µM (NCI-H226): < 5% | inhibition at 10 µM (NCI-H460): < 5% | inhibition at 10 µM (A549/ATCC): < 5% | inhibition at 10 µM (HOP-92): < 5% | inhibition at 10 µM (SF-539): 11.8% | inhibition at 10 µM (SF-295): < 5% | inhibition at 10 µM (SNB-19): 8.29% | inhibition at 10 µM (U251): 5.78% | inhibition at 10 µM (SF-268): 5.8% | inhibition at 10 µM (SNB-75): 19.6% | melting point: 127 to 130 °C | inhibition at 10 µM (RPMI-8226): 6.03% | inhibition at 10 µM (MOLT-4): < 5% | inhibition at 10 µM (CCRF-CEM): 9.47% | inhibition at 10 µM (HL-60(TB)): 6.26% | inhibition at 10 µM (K-562): 9.58% | Ki (hCA IX): 40 nM | IC50 (hCA IX): 0.04 ± 0.002 µM | inhibition at 10 µM (DU-145): < 5% | inhibition at 10 µM (PC-3): < 5%
